According to ChEMBL document CHEMBL5104211, “Design and synthesis of bile acid derivatives and their activity against colon cancer” (RSC Med Chem, 2022):
The source made the active and inactive calls. The calls are words filed in the database; no cut-off is given here.

Tests used:
HT-29 = assay: Anticancer activity against human HT-29 cells assessed as inhibition of cell proliferation by MTT assay; type: functional, cell-based
HCT-116 [1] = assay: Anticancer activity against human HCT-116 cells assessed as inhibition of cell proliferation by MTT assay; type: functional, cell-based
RKO = assay: Anticancer activity against human RKO cells assessed as inhibition of cell proliferation by MTT assay; type: functional, cell-based
LoVo = assay: Anticancer activity against human LoVo cells assessed as inhibition of cell proliferation by MTT assay; type: functional, cell-based
SW480 = assay: Anticancer activity against human SW480 cells assessed as inhibition of cell proliferation by MTT assay; type: functional, cell-based
Huh-7 = assay: Anticancer activity against human Huh-7 cells assessed as inhibition of cell proliferation by MTT assay; type: functional, cell-based
SK-HEP1 = assay: Anticancer activity against human SK-HEP1 cells assessed as inhibition of cell proliferation by MTT assay; type: functional, cell-based
A549 = assay: Anticancer activity against human A549 cells assessed as inhibition of cell proliferation by MTT assay; type: functional, cell-based
MGC-803 = assay: Anticancer activity against human MGC-803 cells assessed as inhibition of cell proliferation by MTT assay; type: functional, cell-based
[2] = Cytotoxicity against human WI-38 cells assessed as inhibition of cell proliferation by MTT assay; type: toxicity, cell-based
HCT-116 [3] = assay: Anticancer activity against human HCT-116 cells assessed as inhibition of cell proliferation at 5 to 50 micromol/L incubated for 24 hrs by MTT assay; type: functional, cell-based; conditions: dose 5-50 µmol/L, DDE = dose-dependent effect
HCT-116 [4] = assay: Anticancer activity against human HCT-116 cells assessed as inhibition of cell proliferation at 20 to 40 micromol/L incubated for 24 to 72 hrs by MTT assay; type: functional, cell-based; conditions: dose 20-40 µmol/L, time 24-72 hrs, TDE = time-dependent effect
HCT-116 [5] = assay: Anticancer activity against human HCT-116 cells assessed as decrease in number of colonies at 25 micromol/L and measured after 48 hrs by crystal violet dye based colony formation assay; type: functional, cell-based; conditions: dose 25.0 µmol/L
HCT-116 [6] = assay: Anticancer activity against human HCT-116 cells assessed as decrease in size of colonies at 25 micromol/L and measured after 48 hrs by crystal violet dye based colony formation assay; type: functional, cell-based; conditions: dose 25.0 µmol/L
HCT-116 [7] = assay: Inhibition of cell migration in human HCT-116 cells at 20 micromol/L and measured after 24 hrs by crystal violet staining based transwell assay; type: functional; conditions: HCT-116, 24 h, dose 20 µmol/L
HCT-116 [8] = assay: Induction of apoptosis in human HCT-116 cells assessed as contraction of cell volume at 30 micromol/L incubated for 48 hrs by Giemsa staining based fluorescence microscopy; type: functional; conditions: dose 30.0 µmol/L
HCT-116 [9] = assay: Induction of cell cycle arrest in human HCT-116 cells assessed as accumulation G2/M phase at 25 micromol/L and measured after 48 hrs by propidium iodide staining based flow cytometry analysis (Rvb= 11%); type: functional; conditions: dose 25 µmol/L, at 25 µM
HCT-116 [10] = assay: Induction of apoptosis in human HCT-116 cells assessed as necrotic cells at 30 micromol/L incubated for 48 hrs by annexin V-FITC and propidium iodide staining based flow cytometry analysis (reference value: 0.88%); type: functional; conditions: dose 30 µmol/L, at 30 µM
HCT-116 [11] = assay: Induction of apoptosis in human HCT-116 cells assessed as late apoptotic cells at 30 micromol/L incubated for 48 hrs by annexin V-FITC and propidium iodide staining based flow cytometry analysis (reference value: 7.13%); type: functional; conditions: dose 30 µmol/L, at 30 µM
HCT-116 [12] = assay: Induction of apoptosis in human HCT-116 cells assessed as early apoptotic cells at 30 micromol/L incubated for 48 hrs by annexin V-FITC and propidium iodide staining based flow cytometry analysis (reference value: 2.69%); type: functional; conditions: dose 30 µmol/L, at 30 µM
HCT-116 [13] = assay: Induction of apoptosis in human HCT-116 cells assessed as viable cells at 30 micromol/L incubated for 48 hrs by annexin V-FITC and propidium iodide staining based flow cytometry analysis (reference value: 89.29%); type: functional; conditions: HCT-116, 48 h, dose 30 µmol/L, read-out: Activity
HCT-116 [14] = assay: Induction of apoptosis in human HCT-116 cells assessed as unclear cell rupture edges at 30 micromol/L incubated for 48 hrs by Giemsa staining based fluorescence microscopy; type: functional; conditions: dose 30.0 µmol/L
HCT-116 [15] = assay: Induction of apoptosis in human HCT-116 cells assessed as apoptotic body formation at 30 micromol/L incubated for 48 hrs by Giemsa staining based fluorescence microscopy; type: functional, cell-based; conditions: dose 30.0 µmol/L
HCT-116 [16] = assay: Induction of apoptosis in human HCT-116 cells assessed as retraction of the nucleus at 30 micromol/L incubated for 48 hrs by Giemsa staining based fluorescence microscopy; type: functional, cell-based; conditions: dose 30.0 µmol/L
HCT-116 [17] = assay: Induction of apoptosis in human HCT-116 cells assessed as retraction of the cytoplasm at 30 micromol/L incubated for 48 hrs by Giemsa staining based fluorescence microscopy; type: functional, cell-based; conditions: dose 30.0 µmol/L
HCT-116 [18] = assay: […] activity in human HCT-116 cells assessed as downregulation of Bcl-2 level at 30 micromol/L incubated for 48 hrs by Western blot analysis; type: functional, cell-based; conditions: dose 30.0 µmol/L
HCT-116 [19] = assay: […] activity in human HCT-116 cells assessed as upregulation of cleaved caspase-3 level at 30 micromol/L incubated for 48 hrs by Western blot analysis; type: functional, cell-based; conditions: dose 30.0 µmol/L
HCT-116 [20] = assay: Anticancer activity in human HCT-116 cells assessed as downregulation of phosphorylated STAT3 level at 30 micromol/L incubated for 48 hrs by Western blot analysis; type: functional, cell-based; conditions: dose 30.0 µmol/L
HCT-116 [21] = assay: Induction of mitochondrial membrane potential loss in human HCT-116 cells and measured after 48 hrs by TRME staining based flow cytometric analysis (reference value: 97.52%); type: functional
HCT-116 [22] = assay: Induction of ROS generation in human HCT-116 cells assessed as increase in intracellular ROS level incubated for 48 hrs by DCFH-DA staining based flow cytometric analysis (Rvb=73.65%); type: functional
HCT-116 [23] = assay: Inhibition of cell invasion in human HCT-116 cells at 20 micromol/L and measured after 24 hrs by crystal violet staining based transwell assay; type: functional; conditions: HCT-116, 24 h, dose 20 µmol/L
HCT-116 [24] = assay: Induction of apoptosis in human HCT-116 cells assessed as increase in number of apoptotic cells at 30 micromol/L incubated for 48 hrs by DAPI staining based fluorescence microscopy; type: functional, cell-based; conditions: dose 30.0 µmol/L
RAW264.7 [25] = assay: Anti-inflammatory activity against mouse RAW264.7 cells assessed as inhibition of LPS-induced NO production incubated for 24 hrs in presence of LPS by Griess reagent-based assay; type: functional, cell-based; conditions: RAW264.7, 24 h
RAW264.7 [26] = assay: Anti-inflammatory activity against mouse RAW264.7 cells assessed as downregulation of LPS-induced TNF-alpha level at 10 to 25 micromol/L incubated for 24 hrs in presence of LPS by ELISA; type: functional, cell-based; conditions: dose 10-25 µmol/L
HCT-116 [27] = assay: Anticancer activity against human HCT-116 cells assessed as inhibition of cell proliferation at 20 micromol/L incubated for 24 hrs by MTT assay; type: functional; conditions: HCT-116, 24 h, dose 20 µmol/L
HCT-116 [28] = assay: Anticancer activity against human HCT-116 cells assessed as inhibition of cell proliferation at 40 micromol/L incubated for 24 hrs by MTT assay; type: functional; conditions: HCT-116, 24 h, dose 40 µmol/L

IC50 (HT-29) [µM] | IC50 (HCT-116 [1]) [µM] | IC50 (LoVo) [µM] | IC50 (SW480) [µM] | IC50 (Huh-7) [µM] | IC50 (SK-HEP1) [µM] | IC50 (A549) [µM] | IC50 (MGC-803) [µM] | SMILES | IC50 (RKO) [µM] | IC50 [2] [µM] | inhibition (HCT-116 [3]) | inhibition (HCT-116 [4]) | Activity (HCT-116 [5]) | Activity (HCT-116 [6]) | inhibition at 20 µM (HCT-116 [7]) [%] | Activity (HCT-116 [8]) | Activity (HCT-116 [9]) [%] | Activity (HCT-116 [10]) [%] | Activity (HCT-116 [11]) [%] | Activity (HCT-116 [12]) [%] | other results
29.2 | 28.9 | 28.3 | 36.1 | 74.8 | 49.9 | 121 | 31.6 | COC(=O)c1ccc(COC(=O)CC[C@@H](C)[C@H]2CC[C@H]3[C@@H]4[C@H](O)C[C@@H]5C[C@H](O)CC[C@]5(C)[C@H]4CC[C@]23C)cc1 | 44.4 | > 500 | Dde | Tde | Active | Active | 30 | Active | 63.98 | 0.89 | 62.13 | 2.12 | viability at 30 µM (HCT-116 [13]): 34.9%; Activity (HCT-116 [14]): Active; Activity (HCT-116 [15]): Active; Activity (HCT-116 [16]): Active; Activity (HCT-116 [17]): Active; Activity (HCT-116 [18]): Active; Activity (HCT-116 [19]): Active; Activity (HCT-116 [20]): Active; Activity (HCT-116 [21]): 79.08%; Activity (HCT-116 [22]): 85.75%
27.2 | 25 | 28.4 | 31.3 | 52.1 | 41.6 | 51.1 | 28.5 | COC(=O)c1ccc(COC(=O)CC[C@@H](C)[C@H]2CC[C@H]3[C@@H]4[C@H](O)C[C@@H]5C[C@H](O)CC[C@]5(C)[C@H]4C[C@H](O)[C@]23C)cc1 | 41.2 | > 500 | Dde | Tde | Active | Active | 80 | Active | 89.39 | 1.19 | 74.4 | 1.33 | inhibition at 20 µM (HCT-116 [23]): 80%; viability at 30 µM (HCT-116 [13]): 23.1%; Activity (HCT-116 [14]): Active; Activity (HCT-116 [15]): Active; Activity (HCT-116 [16]): Active; Activity (HCT-116 [17]): Active; Activity (HCT-116 [24]): Active; Activity (HCT-116 [18]): Active; Activity (HCT-116 [19]): Active; Activity (HCT-116 [20]): Active; Activity (HCT-116 [21]): 71.17%; Activity (HCT-116 [22]): 91.33%; IC50 (RAW264.7 [25]): 20.6 µM; Activity (RAW264.7 [26]): Active
22.7 | 21.3 | 18.7 | 23.6 | 51.6 | 60.2 | 40.5 | 21.9 | Cc1ccc(COC(=O)CC[C@@H](C)[C@H]2CC[C@H]3[C@@H]4[C@H](O)C[C@@H]5C[C@H](O)CC[C@]5(C)[C@H]4C[C@H](O)[C@]23C)cc1 | 27.6 | > 500 | Dde | Tde | Active | Active | 80 | Active | 90.66 | 0.81 | 72.61 | 1.3 | inhibition at 20 µM (HCT-116 [27]): < 40%; inhibition at 40 µM (HCT-116 [28]): 90%; inhibition at 20 µM (HCT-116 [23]): 80%; viability at 30 µM (HCT-116 [13]): 25.3%; Activity (HCT-116 [14]): Active; Activity (HCT-116 [15]): Active; Activity (HCT-116 [16]): Active; Activity (HCT-116 [17]): Active; Activity (HCT-116 [24]): Active; Activity (HCT-116 [18]): Active; Activity (HCT-116 [20]): Active; Activity (HCT-116 [21]): 51.59%; Activity (HCT-116 [22]): 95.87%; IC50 (RAW264.7 [25]): 20.6 µM; Activity (RAW264.7 [26]): Active
